Assay results: paper doi:10.1101/471615v1 (biorxiv, 2018)

Target: T1, GAK (InCELL Pulse) (Homo sapiens, UniProt O14976)
T1 sequence (O14976 2-1311): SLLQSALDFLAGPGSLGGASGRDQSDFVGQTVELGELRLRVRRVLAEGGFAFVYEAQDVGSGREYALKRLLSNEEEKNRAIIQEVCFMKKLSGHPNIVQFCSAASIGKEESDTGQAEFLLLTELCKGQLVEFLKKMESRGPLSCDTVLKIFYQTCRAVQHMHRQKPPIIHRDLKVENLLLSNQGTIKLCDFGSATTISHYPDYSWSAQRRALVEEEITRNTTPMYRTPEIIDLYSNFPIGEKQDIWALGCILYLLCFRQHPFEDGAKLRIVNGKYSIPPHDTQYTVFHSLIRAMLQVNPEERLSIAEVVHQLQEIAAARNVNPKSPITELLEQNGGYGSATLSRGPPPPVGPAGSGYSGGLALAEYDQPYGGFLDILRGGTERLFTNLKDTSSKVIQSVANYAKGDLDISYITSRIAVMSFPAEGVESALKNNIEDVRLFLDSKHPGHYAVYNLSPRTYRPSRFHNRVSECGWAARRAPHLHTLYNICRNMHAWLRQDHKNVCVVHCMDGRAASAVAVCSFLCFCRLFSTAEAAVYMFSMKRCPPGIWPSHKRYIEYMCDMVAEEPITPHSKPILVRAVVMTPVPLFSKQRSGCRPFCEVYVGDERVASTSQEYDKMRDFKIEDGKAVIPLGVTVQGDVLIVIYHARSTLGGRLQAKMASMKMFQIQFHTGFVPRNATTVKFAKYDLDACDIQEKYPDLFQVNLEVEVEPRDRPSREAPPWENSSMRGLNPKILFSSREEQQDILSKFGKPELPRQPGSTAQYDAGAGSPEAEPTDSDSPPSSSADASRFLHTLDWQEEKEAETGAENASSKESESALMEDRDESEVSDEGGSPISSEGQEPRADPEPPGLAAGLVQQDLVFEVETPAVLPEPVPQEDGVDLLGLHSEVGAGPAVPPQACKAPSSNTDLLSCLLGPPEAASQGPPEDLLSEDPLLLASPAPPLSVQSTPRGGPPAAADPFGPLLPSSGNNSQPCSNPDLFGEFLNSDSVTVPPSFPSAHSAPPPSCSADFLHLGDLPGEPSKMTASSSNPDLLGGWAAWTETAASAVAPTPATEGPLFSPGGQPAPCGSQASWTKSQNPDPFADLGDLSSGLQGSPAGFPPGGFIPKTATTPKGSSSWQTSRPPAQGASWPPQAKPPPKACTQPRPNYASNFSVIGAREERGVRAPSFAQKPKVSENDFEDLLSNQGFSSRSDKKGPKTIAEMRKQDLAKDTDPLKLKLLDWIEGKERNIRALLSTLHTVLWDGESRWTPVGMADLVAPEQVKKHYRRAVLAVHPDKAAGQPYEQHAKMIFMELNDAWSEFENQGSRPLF
Assay: InCELL Pulse cellular target engagement
Type: cell-based
Conditions: in cells

| Structure (SMILES) | IC50 [µM] |
| --- | --- |
| COc1cc2nccc(Nc3cc(OC)c(OC)c(OC)c3)c2cc1OC [compound 15, 6,7-disubstituted methoxy (15)] | 0.045 |
| COc1cc(Nc2ncnc3ccc(C(F)(F)F)cc23)cc(OC)c1OC [compound 19, quinazoline (19)] | 6.7 |
